System: RNAi-treated eri-1 (mg366) nematodes
Test: RNAi screening of olfactory receptor genes: chemotaxis assay of RNAi-treated nematodes to odorants
Type: in vivo, Caenorhabditis elegans
Conditions: repellent or high concentration of attractant
How it was run: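 eri-1 (mg366) worms knocked down by feeding RNAi (Ahringer library) on IPTG/ampicillin NGM plates with E. coli for 4 days, then tested for chemotaxis, 30–50 worms per assay. Odorants at 1 μl of 10^−3 or 10^−4 dilution, or 1 and 5 μl undiluted. Hits scored by z score, thresholds ±1.96 (P<0.05) or ±0.96.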

## CCCCCCCCO [octanol]
Control nematodes
  chemotaxis index: −0.68 ± 0.018
srh-4 RNAi-treated nematodes
  chemotaxis index: −0.17
srh-7 RNAi-treated nematodes
  chemotaxis index: −0.65
srh-8 RNAi-treated nematodes
  chemotaxis index: −0.80
srh-10 RNAi-treated nematodes
  chemotaxis index: −0.45
srh-11 RNAi-treated nematodes
  chemotaxis index: −0.19
srh-15 RNAi-treated nematodes
  chemotaxis index: −0.85
srh-16 RNAi-treated nematodes
  chemotaxis index: −0.89
srh-18 RNAi-treated nematodes
  chemotaxis index: −0.65
srh-19 RNAi-treated nematodes
  chemotaxis index: −0.33
srh-22 RNAi-treated nematodes
  chemotaxis index: −0.48
srh-23 RNAi-treated nematodes
  chemotaxis index: −0.90
srh-24 RNAi-treated nematodes
  chemotaxis index: −0.56
srh-25 RNAi-treated nematodes
  chemotaxis index: −0.90
srh-27 RNAi-treated nematodes
  chemotaxis index: −0.68
srh-28 RNAi-treated nematodes
  chemotaxis index: −0.73
srh-36 RNAi-treated nematodes
  chemotaxis index: −0.72
srh-37 RNAi-treated nematodes
  chemotaxis index: −0.88
srh-39 RNAi-treated nematodes
  chemotaxis index: −0.50
srh-40 RNAi-treated nematodes
  chemotaxis index: −0.92
srh-41 RNAi-treated nematodes
  chemotaxis index: −0.80
srh-44 RNAi-treated nematodes
  chemotaxis index: −0.52
srh-45 RNAi-treated nematodes
  chemotaxis index: −0.87
srh-46 RNAi-treated nematodes
  chemotaxis index: −0.87
srh-48 RNAi-treated nematodes
  chemotaxis index: −0.83
srh-49 RNAi-treated nematodes
  chemotaxis index: −0.57
srh-50 RNAi-treated nematodes
  chemotaxis index: −0.89
srh-51 RNAi-treated nematodes
  chemotaxis index: −0.89
srh-52 RNAi-treated nematodes
  chemotaxis index: −0.79
srh-55 RNAi-treated nematodes
  chemotaxis index: −0.95
srh-59 RNAi-treated nematodes
  chemotaxis index: −0.55
srh-60 RNAi-treated nematodes
  chemotaxis index: −0.52
srh-61 RNAi-treated nematodes
  chemotaxis index: −0.77
srh-67 RNAi-treated nematodes
  chemotaxis index: −0.66
srh-68 RNAi-treated nematodes
  chemotaxis index: −0.79
srh-69 RNAi-treated nematodes
  chemotaxis index: −0.61
srh-70 RNAi-treated nematodes
  chemotaxis index: −0.80
srh-71 RNAi-treated nematodes
  chemotaxis index: −0.60
srh-72 RNAi-treated nematodes
  chemotaxis index: −0.62
srh-74 RNAi-treated nematodes
  chemotaxis index: −0.89
srh-75 RNAi-treated nematodes
  chemotaxis index: −0.59
srh-77 RNAi-treated nematodes
  chemotaxis index: −0.31
srh-79 RNAi-treated nematodes
  chemotaxis index: −0.17
srh-80 RNAi-treated nematodes
  chemotaxis index: −0.39
srh-82 RNAi-treated nematodes
  chemotaxis index: −0.65
srh-83 RNAi-treated nematodes
  chemotaxis index: −0.33
srh-97 RNAi-treated nematodes
  chemotaxis index: −0.64
srh-99 RNAi-treated nematodes
  chemotaxis index: −0.61
srh-100 RNAi-treated nematodes
  chemotaxis index: −0.46
srh-104 RNAi-treated nematodes
  chemotaxis index: −0.36
srh-105 RNAi-treated nematodes
  chemotaxis index: −0.61
srh-109 RNAi-treated nematodes
  chemotaxis index: −0.91
srh-111 RNAi-treated nematodes
  chemotaxis index: −0.44
srh-113 RNAi-treated nematodes
  chemotaxis index: −0.43
srh-115 RNAi-treated nematodes
  chemotaxis index: −0.82
srh-116 RNAi-treated nematodes
  chemotaxis index: −0.82
srh-118 RNAi-treated nematodes
  chemotaxis index: −0.37
srh-119 RNAi-treated nematodes
  chemotaxis index: −0.35
srh-120 RNAi-treated nematodes
  chemotaxis index: −0.37
srh-122 RNAi-treated nematodes
  chemotaxis index: −0.61
srh-123 RNAi-treated nematodes
  chemotaxis index: −0.32
srh-125 RNAi-treated nematodes
  chemotaxis index: −0.56
srh-128 RNAi-treated nematodes
  chemotaxis index: −0.47
srh-129 RNAi-treated nematodes
  chemotaxis index: −0.56
srh-130 RNAi-treated nematodes
  chemotaxis index: −0.68
srh-131 RNAi-treated nematodes
  chemotaxis index: −0.49
srh-132 RNAi-treated nematodes
  chemotaxis index: −0.19
srh-139 RNAi-treated nematodes
  chemotaxis index: −0.73
srh-140 RNAi-treated nematodes
  chemotaxis index: −0.78
srh-141 RNAi-treated nematodes
  chemotaxis index: −0.49
srh-142 RNAi-treated nematodes
  chemotaxis index: −0.59
srh-145 RNAi-treated nematodes
  chemotaxis index: −0.64
srh-148 RNAi-treated nematodes
  chemotaxis index: −0.67
srh-154 RNAi-treated nematodes
  chemotaxis index: −0.65
srh-159 RNAi-treated nematodes
  chemotaxis index: −0.79
srh-165 RNAi-treated nematodes
  chemotaxis index: −0.49
srh-166 RNAi-treated nematodes
  chemotaxis index: −0.74
srh-167 RNAi-treated nematodes
  chemotaxis index: −0.28
srh-169 RNAi-treated nematodes
  chemotaxis index: −0.62
srh-174 RNAi-treated nematodes
  chemotaxis index: −0.45
srh-179 RNAi-treated nematodes
  chemotaxis index: −0.60
srh-182 RNAi-treated nematodes
  chemotaxis index: −0.86
srh-186 RNAi-treated nematodes
  chemotaxis index: −0.64
srh-190 RNAi-treated nematodes
  chemotaxis index: −0.64
srh-193 RNAi-treated nematodes
  chemotaxis index: −0.92
srh-195 RNAi-treated nematodes
  chemotaxis index: −0.47
srh-201 RNAi-treated nematodes
  chemotaxis index: −0.93
srh-203 RNAi-treated nematodes
  chemotaxis index: −0.95
srh-204 RNAi-treated nematodes
  chemotaxis index: −0.90
srh-206 RNAi-treated nematodes
  chemotaxis index: −0.94
srh-207 RNAi-treated nematodes
  chemotaxis index: −0.81
srh-208 RNAi-treated nematodes
  chemotaxis index: −0.60
srh-209 RNAi-treated nematodes
  chemotaxis index: −0.85
srh-210 RNAi-treated nematodes
  chemotaxis index: −0.77
srh-214 RNAi-treated nematodes
  chemotaxis index: −0.98
srh-216 RNAi-treated nematodes
  chemotaxis index: −0.68
srh-217 RNAi-treated nematodes
  chemotaxis index: −0.82
srh-220 RNAi-treated nematodes
  chemotaxis index: −0.47
srh-222 RNAi-treated nematodes
  chemotaxis index: −0.77
srh-223 RNAi-treated nematodes
  chemotaxis index: −0.75
